Source: the supplement of paper PMC10307832

Legend:
Assay in all cases: relative viability (nuclei count vs DMSO), 5 days (fraction); higher = more cells survive
[1] = compound: O=c1[nH]cc(F)c(=O)[nH]1 [5-Fluorouracil] + Nc1nc2[nH]cc(CCc3ccc(C(=O)N[C@@H](CCC(=O)O)C(=O)O)cc3)c2c(=O)[nH]1 [Pemetrexed] (partner 0.2 µM)
Method in brief: (§1)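 Lung cancer cell lines were seeded in 1536-well plates and dosed by pin tool the next day, with either a single drug or a fixed anchor-drug dose combined with five library-drug doses (not always all listed) spaced in √10 steps. Five days later, one step fixed the cells and stained their nuclei (final 0.05% Triton X-100, 1% formaldehyde, 1 ug/ml Hoechst), and nuclei were counted on 4× images. Relative viability is the nuclei count in treated wells divided by the count in vehicle wells, and each value is the median of duplicate plates.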

[2] = compound: O=c1[nH]cc(F)c(=O)[nH]1 [5-Fluorouracil] + CC1(C)CCC(c2ccc(Cl)cc2)=C(CN2CCN(c3ccc(C(=O)NS(=O)(=O)c4ccc(N[C@H](CCN5CCOCC5)CSc5ccccc5)c(S(=O)(=O)C(F)(F)F)c4)cc3)CC2)C1 [Navitoclax] (partner 0.5 µM)
Method in brief: as §1

[3] = compound: CN[C@@H]1C[C@H]2O[C@@](C)([C@@H]1OC)n1c3ccccc3c3c4c(c5c6ccccc6n2c5c31)C(=O)NC4 [Staurosporine] + Cc1cc(Nc2cc(N3CCN(C)CC3)nc(Sc3ccc(NC(=O)C4CC4)cc3)n2)n[nH]1 [Tozasertib] (partner 0.1 µM)
Method in brief: as §1

[4] = compound: CN[C@@H]1C[C@H]2O[C@@](C)([C@@H]1OC)n1c3ccccc3c3c4c(c5c6ccccc6n2c5c31)C(=O)NC4 [Staurosporine] + CC(C)C[C@H](NC(=O)[C@H](Cc1ccccc1)NC(=O)c1cnccn1)B(O)O [Bortezomib] (partner 0.002 µM)
Method in brief: as §1

Row | Cell Line | relative viability ([1]; first compound 0.02 µM) | relative viability ([1]; first compound 0.2 µM) | relative viability ([1]; first compound 0.6325 µM) | relative viability ([1]; first compound 2 µM) | relative viability ([2]; first compound 0.02 µM) | relative viability ([2]; first compound 0.2 µM) | relative viability ([2]; first compound 0.6325 µM) | relative viability ([2]; first compound 2 µM) | relative viability ([3]; first compound 0.005 µM) | relative viability ([3]; first compound 0.05 µM) | relative viability ([3]; first compound 0.1581 µM) | relative viability ([3]; first compound 0.5 µM) | relative viability ([4]; first compound 0.005 µM) | relative viability ([4]; first compound 0.05 µM) | relative viability ([4]; first compound 0.1581 µM) | relative viability ([4]; first compound 0.5 µM) | relative viability ([4]; first compound 0.01581 µM) | relative viability ([3]; first compound 0.01581 µM)
1 | NCI-H2170 | 0.363 | 0.266 | 0.242 | 0.255 | 0.573 | 0.557 | 0.351 | 0.31 | 0.756 | 0.429 | 0.181 | 0.181 |  |  |  |  |  | 
2 | HCC-366 | 0.142 | 0.145 | 0.0984 | 0.123 | 1.19 | 0.992 | 0.545 | 0.125 | 0.144 | 0.0425 | 0.0279 | 0.0464 | 1.13 | 0.208 | 0.0142 | 0.0141 |  | 
3 | NCI-H2405 | 1.11 | 1.12 | 1.07 | 0.535 | 0.93 | 0.793 | 0.858 | 0.59 | 0.586 | 0.0844 | 0.0771 | 0.0789 | 0.314 | 0.188 | 0.163 | 0.134 | 0.165 | 0.256
4 | COR-L 105 | 1.2 | 1.14 | 0.87 | 0.614 | 0.707 | 0.685 | 0.694 | 0.582 | 0.253 | 0.245 | 0.237 | 0.229 | 0.351 | 0.203 | 0.22 | 0.231 | 0.257 | 0.26
5 | 201T | 0.322 | 0.267 | 0.274 | 0.248 | 1.18 | 1.01 | 0.543 | 0.42 | 1.06 | 0.758 | 0.373 | 0.31 | 1.13 | 1.04 | 0.911 | 0.747 | 1.1 | 
6 | NCI-H2228 | 0.3 | 0.334 | 0.39 | 0.367 | 0.808 | 1.06 | 0.732 | 0.42 | 0.251 | 0.109 | 0.115 | 0.124 | 0.782 | 0.419 | 0.227 | 0.118 | 0.421 | 0.201
7 | LC-2-ad | 0.258 | 0.286 | 0.282 | 0.272 | 0.445 | 0.441 | 0.296 | 0.186 | 0.435 | 0.253 | 0.219 | 0.161 | 0.973 | 0.508 | 0.0851 | 0.0564 | 0.096 | 0.239
8 | NCI-H2087 | 0.624 | 0.593 | 0.609 | 0.588 | 0.928 | 0.917 | 0.573 | 0.557 | 0.189 | 0.102 | 0.0977 | 0.0926 | 0.761 | 0.39 | 0.175 | 0.113 | 0.548 | 0.206
9 | NCI-H358 | 0.177 | 0.182 | 0.172 | 0.169 |  |  |  |  | 0.0876 | 0.0699 | 0.0598 | 0.0619 |  |  |  |  |  | 0.0765
10 | H3255 | 0.557 | 0.6 | 0.557 | 0.449 | 0.566 | 0.795 | 0.454 | 0.419 | 0.504 | 0.203 | 0.239 | 0.145 | 0.357 | 0.337 | 0.162 | 0.136 | 0.228 | 0.337
11 | NCI-H23 | 0.944 | 0.63 | 0.408 | 0.337 | 0.807 | 0.845 | 0.653 | 0.338 | 0.324 | 0.198 | 0.157 | 0.196 | 0.975 | 0.259 | 0.155 | 0.107 | 0.215 | 
12 | CAL-12T | 1.19 | 1 | 0.942 | 0.657 | 1.13 | 1.25 | 0.974 | 0.489 | 0.146 | 0.101 | 0.132 | 0.0975 | 0.343 | 0.233 | 0.244 | 0.186 | 0.227 | 0.117
13 | A-427 | 0.852 | 0.984 | 0.866 | 0.55 | 0.827 | 0.999 | 0.879 | 0.438 | 0.171 | 0.1 | 0.104 | 0.0934 | 1.02 | 0.367 | 0.131 | 0.133 | 0.87 | 0.113
14 | HARA | 0.244 | 0.231 | 0.212 | 0.289 | 1.12 | 1.15 | 1.11 | 1.15 | 0.102 | 0.0638 | 0.0719 | 0.0716 | 0.996 | 0.233 | 0.115 | 0.179 | 0.351 | 
15 | NCI-H1793 | 0.944 | 0.942 | 0.695 | 0.503 | 0.385 | 0.53 | 0.403 | 0.289 | 0.335 | 0.299 | 0.182 | 0.186 |  |  |  |  |  | 
16 | NCI-H1623 |  |  |  |  |  |  |  |  | 0.491 | 0.406 | 0.425 | 0.277 |  |  |  |  |  | 0.495
17 | NCI-H2023 | 0.212 | 0.129 | 0.126 | 0.115 | 1.01 | 0.257 | 0.161 | 0.122 | 0.202 | 0.0713 | 0.0971 | 0.0603 | 0.612 | 0.181 | 0.0797 | 0.0526 | 0.19 | 0.21
18 | ABC-1 |  |  |  |  |  |  |  |  | 0.134 | 0.125 | 0.111 | 0.111 | 0.264 | 0.247 | 0.187 | 0.185 | 0.232 | 0.104
19 | IA-LM |  |  |  |  | 0.934 | 0.328 | 0.179 | 0.178 |  |  |  |  | 0.188 | 0.238 | 0.131 | 0.07 |  | 
20 | NCI-H441 | 0.262 | 0.27 | 0.235 | 0.239 | 1 | 0.502 | 0.507 | 0.409 | 0.392 | 0.231 | 0.195 | 0.208 | 0.391 | 0.212 | 0.133 | 0.126 | 0.209 | 0.379
